Consider 1 substance from patent US20070266957A1 (priority 2004, published 2007).

The assay deals with influenza virus (H3N2 type human vaccine New Caledonia strain). The class given is cell-based.

Where two headings read alike, the source gives them in different places.

For the substance hinokitiol copper complex, the anti-influenza virus activity result was “ineffective”. In addition, for the setting “concentration 0.8 μg/ml”, the FFU is given as 280 FFU. For the same substance, the FFU result (concentration 4 μg/ml) is on record as “Exfoliation”. Also, the FFU entry (concentration 20 μg/ml) is listed as “Exfoliation”. The FFU result (concentration 100 μg/ml) is “Exfoliation”.
